# How the values were obtained:
# E. coli LpxA = E. coli LpxA (Escherichia coli, UniProt P0A722); test: LpxA enzyme inhibition (TLC of radiolabeled UDP-GlcNAc acylation); format: biochemical; settings: percentage of control, lower is better; for remaining activity at 500 µM (stock) / % LpxA activity (500 μM): test compound dilution 500 μM; for remaining activity at 5000 µM (stock) / % LpxA activity (5 mM): test compound dilution 5 mM
# Procedure: Measurement of LpxA activity was based on increased mobility of radiolabeled UDP-N-acetyl-D-glucosamine on thin layer chromatography (TLC) plates upon acylation. One μl of test compound of appropriate dilution in ethanol was mixed with 2.5 μM β-hydroxy-myristoyl-ACP and 0.5 μM E. coli LpxA in 1% bovine serum albumin and 40 mM Na-Hepes (pH 8.0) at room temperature (total volume 8 μl). The reaction was initiated by adding 2 μl of UDP-[^3H]N-acetyl-D-glucosamine and aliquots were removed at various time intervals and spotted directly on silica gel G plates.
# The procedure as given above was followed, with the appropriate dilutions of test compound being 5 mM and 500 μM.
# [1] = system: E. coli D22 mutant strain; test: Antibiotic MIC, NCCLS M7-A6 broth microdilution; format: cell-based; settings: range tested 1 μM-2 mM
# Procedure: (§1) Susceptibilities to the compounds were determined using the National Committee for Clinical Laboratory Standards (NCCLS) M7-A6 broth microdilution method. Cation-adjusted Mueller-Hinton broth (Ca^2+, 25 μg/mL; Mg^2+, 12.5 μg/mL) microdilution panels were prepared to contain antimicrobial doubling dilution concentrations of an appropriate range. DMSO (dimethylsulfoxide) controls were incorporated into the panel to mimic the quantity of DMSO used in dissolving some of the compounds at the higher concentrations. Each final panel well volume was 100 μL with a bacterial inoculum of 5×10^5 CFU (colony forming units)/mL. Panels were read following 16 to 20 h of incubation at 35 degrees Celsius in ambient air. The MIC (minimum inhibitory concentration) was defined as the lowest concentration of antimicrobial inhibiting visible growth.
# (§2) Procedure followed was as described above, with the appropriate range being 1 μM-2 mM and using the E. coli D22 mutant strain and the E. coli K12 wild type strain. Value recorded was the lowest concentration of compound needed to produce the bactericidal or bacteriostatic effect (lower is better): […]
# [2] = system: E. coli K12 wild type strain; test: Pro-antibiotic MIC of antibiotic agents alone and with DNM0195; format: cell-based; settings: antibiotic agent alone
# Procedure: as §1, with “DMSO (dimethylsulfoxide) controls were incorporated into the panel to mimic the quantity of DMSO used in dissolving some of the compounds at the higher concentrations.” left out
# Following Example 24, MICs of various antibiotic agents were determined against the E. coli K12 wild type strain, using the same procedure with the appropriate range for each antibiotic. For erythromycin, gentamicin, and kanamycin, this range was 0.24 μg/mL-500 μg/mL. Parallel to this effort, solutions were prepared which were identical. To each of these were added 0.5 μL of DNM0195 stock solution and mixed to produce a final concentration of 500 μM for determination of pro-antibiotic activity.
# mice = settings: mouse, in vivo
# [3] = system: E. coli K12 wild type strain; test: Antibiotic MIC, NCCLS M7-A6 broth microdilution; format: cell-based; settings: range tested 1 μM-2 mM
# Procedure: as §1, §2
# [4] = Escherichia coli, read-out: MIC
# Sequence of E. coli LpxA (P0A722 whole entry): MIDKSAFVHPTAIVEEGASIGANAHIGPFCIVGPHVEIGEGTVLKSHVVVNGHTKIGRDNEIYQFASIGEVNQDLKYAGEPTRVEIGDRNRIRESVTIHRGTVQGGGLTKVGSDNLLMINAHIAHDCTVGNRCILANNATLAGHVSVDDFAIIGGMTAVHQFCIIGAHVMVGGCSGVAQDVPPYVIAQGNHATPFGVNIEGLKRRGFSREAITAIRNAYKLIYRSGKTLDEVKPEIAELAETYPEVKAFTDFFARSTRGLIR
Compound,remaining activity at 500 µM (stock) (E. coli LpxA),remaining activity at 5000 µM (stock) (E. coli LpxA),other results
"COC(=O)/C=C/c1cc(-c2nnn(C)n2)c(Cc2ccccc2)s1 [DNM0226, (E)-methyl 3-(5-benzyl-4-(2-methyl-2H-tetrazol-5-yl)thiophen-2-yl)acrylate]",97%,93%,–
"COC(=O)/C=C/c1sc(Cc2ccccc2)cc1-c1nnn[nH]1 [DNM0243, (E)-methyl 3-(5-benzyl-3-(1H-tetrazol-5-yl)thiophen-2-yl)acrylate]",69.2%,0.9%,–
"COC(=O)/C=C/c1cc(-c2nnn[nH]2)c(Cc2ccccc2)s1 [DNM0194, (Z) and (E)-methyl 3-(5-benzyl-4-(1H-tetrazol-5-yl)thiophen-2-yl)acrylate]",–,–,% LpxA activity (500 μM) (E. coli LpxA): 36.0%; % LpxA activity (5 mM) (E. coli LpxA): 1.4%; MIC [1]: 1000 to 2000 µM
"O=C(O)/C=C/c1cc(-c2nnn[nH]2)c(-c2ccc(-c3ccccc3)cc2)s1 [DNM0225, (E)-3-(5-(4-biphenylyl)-4-(1H-tetrazol-5-yl)thiophen-2-yl)acrylic acid]",84.9%,7.3%,–
"COC(=O)/C=C/c1cc(-c2nnn[nH]2)c(-c2cccc3ccccc23)s1 [DNM0234, (E)-methyl 3-(5-(naphthalen-1-yl)-4-(1H-tetrazol-5-yl)thiophen-2-yl)acrylate]",92.1%,1.1%,–
"O=C(O)/C=C/c1cccc(Cc2sc(/C=C/C(=O)O)cc2-c2nnn[nH]2)c1 [DNM0270, (E)-3-(3-((5-((E)-2-carboxyvinyl)-3-(1H-tetrazol-5-yl)thiophen-2-yl)methyl)phenyl)acrylic acid]",89.7%,3%,–
"Cn1nnnc1-c1cc(/C=C/C(=O)O)sc1Cc1ccccc1 [DNM0196, (E)-3-(5-benzyl-4-(1-methyl-1H-tetrazol-5-yl)thiophen-2-yl)acrylic acid]",43.9%,5.8%,–
"COC(=O)/C=C/c1sc(-c2ccc(F)cc2)cc1-c1nnn[nH]1 [DNM0229, (E)-methyl 3-(5-(4-fluorophenyl)-3-(1H-tetrazol-5-yl)thiophen-2-yl)acrylate]",57.8%,4%,–
"O=C(O)/C=C/c1cc(-c2nnn[nH]2)c(-c2ccc(F)cc2)s1 [DNM0224, (E)-3-(5-(4-fluorophenyl)-4-(1H-tetrazol-5-yl)thiophen-2-yl)acrylic acid]",88.7%,37.9%,–
CC[C@H]1OC(=O)[C@H](C)[C@@H](O[C@H]2C[C@@](C)(OC)[C@@H](O)[C@H](C)O2)[C@H](C)[C@@H](O[C@@H]2O[C@H](C)C[C@H](N(C)C)[C@H]2O)[C@](C)(O)C[C@@H](C)C(=O)[C@H](C)[C@@H](O)[C@]1(C)O [Erythromycin],–,–,"MIC [2, 4]: 62.5 µg/mL"
"O=C(O)C(=Cc1cc(-c2nnn[nH]2)c(Cc2ccccc2)s1)C(=O)O [DNM0264, 2-((5-benzyl-4-(1H-tetrazol-5-yl)thiophen-2-yl)methylene)malonic acid]",56.8%,5.4%,–
"O=C(O)/C=C/c1cc(-c2nnn[nH]2)c(Cc2ccccc2)s1 [DNM0195, (Z) and (E)-3-(5-benzyl-4-(1H-tetrazol-5-yl)thiophen-2-yl)acrylic acid]",–,–,Liver biopsies (mice): normal; % LpxA activity (500 μM) (E. coli LpxA): 7.6%; % LpxA activity (5 mM) (E. coli LpxA): 3.1%; MIC [3]: 1000 to 2000 µM; MIC [1]: 1000 µM
"COC(=O)/C=C/c1cc(-c2nnnn2C)c(Cc2ccccc2)s1 [DNM0227, (E)-methyl 3-(5-benzyl-4-(1-methyl-1H-tetrazol-5-yl)thiophen-2-yl)acrylate]",92.1%,86.6%,–
"O=C(O)/C=C/c1sc(-c2ccc(-c3ccccc3)cc2)cc1-c1nnn[nH]1 [DNM0245, (E)-3-(5-(biphenyl-4-yl)-3-(1H-tetrazol-5-yl)thiophen-2-yl)acrylic acid]",78.5%,4.4%,–
"O=C(O)/C=C/c1cc(-c2nnn(CCC(=O)O)n2)c(Cc2ccccc2)s1 [DNM0252, (E)-3-(5-benzyl-4-(2-(2-carboxyethyl)-2H-tetrazol-5-yl)thiophen-2-yl)acrylic acid]",62.9%,5.1%,–
"COC(=O)/C=C/c1sc(-c2ccc(-c3ccccc3)cc2)cc1-c1nnn[nH]1 [DNM0240, (E)-methyl 3-(5-(4-biphenyl)-3-(1H-tetrazol-5-yl)thiophen-2-yl)acrylate]",–,–,% LpxA activity (500 μM) (E. coli LpxA): 90.7%; % LpxA activity (5 mM) (E. coli LpxA): 6.6%
"O=C(O)/C=C/c1cc(-c2nnn[nH]2)c(-c2cccc3ccccc23)s1 [DNM0235, (E)-3-(5-(naphthalen-1-yl)-4-(1H-tetrazol-5-yl)thiophen-2-yl)acrylic acid]",59.6%,7.3%,–
NC[C@H]1O[C@H](O[C@H]2[C@H](O)[C@@H](O[C@H]3O[C@H](CO)[C@@H](O)[C@H](N)[C@H]3O)[C@H](N)C[C@@H]2N)[C@H](O)[C@@H](O)[C@@H]1O [Kanamycin],–,–,"MIC [2, 4]: 3.12 µg/mL"
Gentamicin,–,–,MIC [2]: 0.39 µg/mL
"O=C1NC(=O)C(=Cc2sc(Cc3ccccc3)cc2-c2nnn[nH]2)S1 [DNM0246, 5-((5-benzyl-3-(1H-tetrazol-5-yl)thiophen-2-yl)methylene)thiazolidine-2,4-dione]",165%,10.3%,–
"Cn1nnc(-c2cc(/C=C/C(=O)O)sc2Cc2ccccc2)n1 [DNM0197, (E)-3-(5-benzyl-4-(2-methyl-2H-tetrazol-5-yl)thiophen-2-yl)acrylic acid]",62.4%,20.2%,–
"Cn1nnnc1-c1cc(-c2ccc(F)cc2)sc1/C=C/C(=O)O [DNM0233, (E)-3-(5-(4-fluorophenyl)-3-(1-methyl-1H-tetrazol-5-yl)thiophen-2-yl)acrylic acid]",98.8%,47.3%,–

# Source: patent US20100137388A1, “Therapeutic Pro-Antibiotic Agents and Methods of Use Thereof” (priority 2007, published 2010)
